This passage reports ED50 results from patent EP0199262A2, “Fluorinated benzyl triazole compounds” (CIBA-GEIGY AG, priority 1985, dated 1986).

SMILES strings stand for the structures.

Assay [1] concerns durch Elektroschock ausgelöste Konvulsionen. Put plainly: Protection against electroshock-induced convulsions, mouse. The following applies: po, read-out: effektive Dosis ED50. In kind it is in vivo, Maus. The procedure: (§1) Die neuen Verbindungen besitzen wertvolle pharmakologische Eigenschaften, insbesondere eine ausgeprägte antikonvulsive Wirksamkeit, die sich beispielsweise an der Maus anhand eines deutlichen Metrazol-Antagonismus im Dosisbereicn von etwa 30 bis 300 mg/kg p.o. sowie an Maus und Ratte anhand einer ausgeprägten Schutzwirkung gegen durch Elektroschock ausgelöste Konvulsionen im Dosisbereich von etwa 1 bis etwa 50, in den meisten Fällen von etwa 1 bis etwa 25 mg/kg p.o. zeigen lässt. In diesem Modell wurden beispielsweise die folgenden Werte für die effektive Dosis ED50 in mg/kg p.o. erhalten (1 h Vorapplikation): • 1-(2,6-Difluorbenzyl)-1 H-1,2,3-triazof-4-carboxamid: 17 (Maus bzw. 8 (Ratte); • 1-(o-Fluorbenzyl)-1H-1,2,34dazol-4-carboxamid: 17 (Maus, Ratte); • 1-(2,6-Difluorbenzyl)-1 H-1,2,3-triazol-4,5-dicarboxamid: 4 (Maus, Ratte); • 1-(6-Chlor-2-fluor-phenyl)-1 H-1,2,3-triazol-4,5-dicarboxamid: 7 (Maus) bzw. 10 (Ratte), • 1-(o-Fluorphenyl)-1H-1,2,3-triazof-4,5-dicarboxamid: 6 (Maus) bzw. 10 (Ratte); • 1-(6-Chlor-2-fluar-phenyl)-1H-1,2,3-triazol-4-carboxamid: 11 (Maus); 1-(2,5-Difluorbenzyl)-1H-1,2,3-triazol-4,5-dicarboxamid: 6 (Maus).
(§2) Die erfindungsgemäss bereitgestellten fluorierten 1-(a-Phenylalkyl)-1H-1,2,3-triazolverbindungen der Formel (I) weisen ihren als antikonvulsiv wirksam bekannten Chloranalogen gegenüber den Vorteil einer verbesserten Wirksamkeit auf. So ergaben sich in obigem Modell z.B. folgende Ed50-Werte: • 1-(o-Chlorbenzyl)-1 H-1,2,3-triazol-4-carboxamid: 26 (Maus) bzw. 25 (Ratte) und • 1-(o-Chlorbenzyl)-1 H-1,2,3-triazol-4,5-dicarboxamid: 40 (Maus) bzw. 43 (Ratte).

For assay [2] the test system is unchanged. Put plainly: Protection against electroshock-induced convulsions, rat. Format: in vivo, Ratte. The following applies: po, read-out: effektive Dosis ED50. As for the experimental part: as §1, §2
[3] abbreviates: Maus, electroshock, p.o., 1 h Vorapplikation.
Setting [4] is: Ratte, electroshock, p.o., 1 h Vorapplikation.

For orientation: ED50 means the dose that gives a 50% effect, or the effect in half of the subjects. Regarding `NC(=O)c1cn(Cc2c(F)cccc2Cl)nn1` [1-(6-Chlor-2-fluor-benzyl)-1H-1,2,3-triazol-4-carboxamid], the 50% effective dose (ED50) in assay [1] (1 h) worked out at 11 mg/kg. Turning to `NC(=O)c1cn(Cc2ccccc2Cl)nn1` [1-(o-Chlorbenzyl)-1 H-1,2,3-triazol-4-carboxamid, reference compound], the figures for the 50% effective dose (ED50) in assay [1] (1 h) and in assay [2] (1 h) were 26 mg/kg and 25 mg/kg, respectively. For the molecule `NC(=O)c1nnn(Cc2ccccc2Cl)c1C(N)=O` [1-(o-Chlorbenzyl)-1 H-1,2,3-triazol-4,5-dicarboxamid, reference compound], the ED50 in assay [1] (setting [3]) turned out to be 40 mg/kg; in assay [2] (setting [4]), 43 mg/kg. Take `NC(=O)c1nnn(Cc2ccccc2F)c1C(N)=O` [1-(o-Fluorbenzyl)-1 H-1,2,3,-triazol-4,5-dicarboxamid]: the results for the ED50 in assay [1] (setting [3]) and in assay [2] (setting [4]) were 6 mg/kg and 10 mg/kg, respectively. For the molecule `NC(=O)c1cn(Cc2ccccc2F)nn1` [1-(o-Fluorbenzyl)-1 H-1,2,3-triazol-4-carboxamid], the ED50 in assay [1] (1 h) and in assay [2] (1 h) was 17 mg/kg each time.

Regarding `NC(=O)c1nnn(Cc2cc(F)ccc2F)c1C(N)=O` [1-(2,5-Difluorbenzyl)-1H-1,2,3-triazol-4,5-dicarboxamid], in assay [1] (setting [3]), the 50% effective dose (ED50) amounted to 6 mg/kg. Consider `NC(=O)c1nnn(Cc2c(F)cccc2F)c1C(N)=O` [1-(2,6-Difluorbenzyl)-1H-1,2,3-triazol-4,5-dicarboxamid], for which the ED50 in assay [1] (setting [3]) and in assay [2] (setting [4]) was 4 mg/kg each time. With `NC(=O)c1cn(Cc2c(F)cccc2F)nn1` [1-(2,6-Difluorbenzyl)-1 H-1,2,3-triazol-4-carboxamid], the ED50 was 17 mg/kg in assay [1] (setting [3]) and 8 mg/kg in assay [2] (setting [4]). As for `NC(=O)c1nnn(Cc2c(F)cccc2Cl)c1C(N)=O` [1-(6-Chlor-2-fluor-benzyl)-1 H-1,2,3-triazol-4,5-dicarboxamid], the 50% effective dose (ED50) in assay [1] (setting [3]) came to 7 mg/kg; in assay [2] (setting [4]) it was 10 mg/kg.
